# Measurements taken from ChEMBL document CHEMBL3108750, “Solution structure of a sponge-derived cystine knot peptide and its notable stability” (J Nat Prod, 2014).
# Positions of bridges follow the written chain, without caps; N, C: chain ends. Residues, ends and D or L forms follow the SMILES beside them.
# Assays:
# [1] = Cytotoxicity against human HK2 cells assessed as cell viability up to 50 uM after 48 hrs by MTT assay; assay type: cell-based; conditions: hk-2, 48 h
# [2] = Cytotoxicity against human MCF10A cells assessed as cell viability up to 50 uM after 48 hrs by MTT assay; assay type: cell-based; conditions: mcf-10a
compound,measurement,setting,value
"CC[C@H](C)[C@H](NC(=O)[C@@H](NC(=O)[C@H](Cc1ccc(O)cc1)NC(=O)[C@@H]1CSSC[C@@H]2NC(=O)[C@@H]3CCCN3C(=O)[C@H](CC(N)=O)NC(=O)[C@H](Cc3ccccc3)NC(=O)[C@H](CCC(=O)O)NC(=O)[C@H](C(C)C)NC(=O)[C@H](CC(=O)O)NC(=O)[C@@H]3CSSC[C@H](NC(=O)[C@H]([C@@H](C)O)NC(=O)[C@H](CC(C)C)NC(=O)[C@@H]4CCCN4C(=O)[C@@H]4CCCN4C(=O)[C@H](CSSC[C@H](N)C(=O)N4CCC[C@H]4C(=O)NCC(=O)N[C@@H](CCC(=O)O)C(=O)NCC(=O)N[C@@H](CCC(=O)O)C(=O)N[C@@H](CCC(N)=O)C(=O)N3)NC2=O)C(=O)N[C@@H]([C@@H](C)CC)C(=O)N2CCC[C@H]2C(=O)NCC(=O)N[C@@H](CC(=O)O)C(=O)N2CCC[C@H]2C(=O)N[C@@H](Cc2ccc(O)cc2)C(=O)NCC(=O)N[C@@H]([C@@H](C)CC)C(=O)N1)[C@@H](C)CC)C(=O)O (H-CPGEGEQCDVEFNPCCPPLTCIPGDPYGICYII-OH; disulfide 1-16, 8-21, 15-30)",Activity,[1],Non-toxic
same,Activity,[2],Non-toxic
